Assay results: patent publication US10519116B2, “Water-soluble pyrazole derivatives as corrosion inhibitors” (Ecolab USA Inc., priority 2015, dated 2019)
In brackets after ≈: the same amount, converted by molar mass.

Columns and labels:
[1] = Copper corrosion rate by linear polarization resistance measurements; details: copper coupons, 5 ppm inhibitor, pH 7.0, 45° C.; for No FRC Corrosion Rate: absence of bleach, average over 24 hour period; for 1 ppm FRC Corrosion Rate: bleach added to keep FRC at 1 ppm
Description: The corrosion rate of copper in the presence of (1H-pyrazol-1-yl)methanol, (3,5-dimethyl-1H-pyrazol-1-yl)methanol, (3,5-dimethyl-1H-pyrazol-1-yl)(phenyl)methanol, 1-(3,5-dimethyl-1H-pyrazol-1-yl)ethan-1-ol, 2-(1H-pyrazol-1-yl)ethan-1-ol, 3-phenyl-1H-pyrazole, 4-chloro-3,5-dimethyl-1H-pyrazole, and 3,5-dimethylpyrazole was determined using linear polarization resistance measurements. In addition, the corrosion rate of copper in the presence of pyrazole, 1-ethyl-1H-pyrazole, and tolyltriazole was determined using linear polarization resistance measurements. (1H-Pyrazol-1-yl)methanol, (3,5-dimethyl-1H-pyrazol-1-yl)methanol, (3,5-dimethyl-1H-pyrazol-1-yl)(phenyl)methanol, 4-chloro-3,5-dimethyl-1H-pyrazole, and 1-(3,5-dimethyl-1H-pyrazol-1-yl)ethan-1-ol were prepared by Applicants. Pyrazole, 3,5-dimethylpyrazole, 2-(1H-pyrazol-1-yl)ethan-1-ol, and 1-ethyl-1H-pyrazole were purchased from TCI America. 3-Phenyl-1H-pyrazole and tolyltriazole were purchased from Sigma-Aldrich (St. Louis, Mo.).
For each experiment, cylindrical copper coupons pre-polished using SIC 600 paper and fitted on a Pine rotator were immersed in a solution of corrosion inhibitor. The test solution comprised 470 ppm calcium, 230 ppm magnesium, 590 ppm chloride, 260 ppm sulfate, and 100 ppm alkalinity, as CaCO3. The pH of the test water was maintained at 7.0 using carbon dioxide, and the water temperature was maintained at 45° C. throughout the experiment.
The copper samples were immersed in 1 liter electrochemical cells comprising a 5 ppm inhibitor solution, and the Rp (polarization resistance) was recorded over a 24 hour period. The analysis was conducted using the following testing conditions: Initial E: −0.02V; Final E: +0.02V; Scan rate: 0.5 mV/s; Sample period: 1 second; Repeat time: 15 minutes; Sample area: 5 cm^2; Density: 8.92 g/cm^3; Copper Eq. Weight: 63.54 g; and Initial delay: 30 seconds.
Next, the copper samples were exposed to 1 ppm FRC by adding a few drops of 4% bleach solution to the electrolyte solution. After the FRC reached 1 ppm, the copper samples were analyzed. Throughout the analysis, the bleach solution was added intermittently to maintain the FRC at 1 ppm. The Rp in the absence and presence of bleach was collected and analyzed, and the average corrosion rate was calculated and recorded in Table 1. Corrosion rates were calculated in mils per year (mpy). FIGS. 1-3 display data plots for compounds 1, 3, 5, 6, and 9.

[2] = test system: Pseudokirchneriella subcapita; test: Chronic 72-Hour Green Algal Growth Test; format: in vivo; details: 72-hour chronic green algal growth test
Description: (§1) The aquatic toxicity of (1H-pyrazol-1-yl)methanol toward a variety of species was analyzed. (1H-pyrazol-1-yl)methanol had lower aquatic toxicity than many commonly used corrosion inhibitors.

[3] = Turbidity of 2% aqueous solutions at various pH levels (solubility); format: physicochemical; details: judged from turbidity at a wide range of pH levels
Description: Solutions comprising (1H-pyrazol-1-yl)methanol and 3,5-dimethylpyrazole at various pH levels were prepared by dissolving the corresponding pyrazole (2 grams) in deionized water (98 grams). The solutions were adjusted to the desired pH by adding dilute sulfuric acid or aqueous sodium hydroxide (1 N). The turbidity of each solution was measured using a HACH 2100Q Portable Turbidimeter.

[4] = Ceriodaphnia dubia 48-Hour Definitive Toxicity Test; format: in vivo; details: Ceriodaphnia dubia, in vivo, other: aquatic exposure (compound in the test water)
Description: as §1

[5] = test system: Ceriodaphnia dubia; test: as above; format: in vivo
Description: as §1

[6] = in vivo; details: in vivo; 96-hour definitive toxicity test
Description: as §1

[7] = test system: Oncorhynchus mykiss; test: in vivo; details: 96-hour definitive toxicity test
Description: as §1

Molecule	No FRC Corrosion Rate [1] [mpy]	1 ppm FRC Corrosion Rate [1] [mpy]	also measured
Cc1cc(C)n(C(C)O)n1 (centres unmarked) [Compound 3, 1-(3,5-dimethyl-1H-pyrazol-1-yl)ethan-1-ol]	0.0036	0.0142	
OCn1cccn1 [Compound 1, (1H-pyrazol-1-yl)methanol]	0.0057	0.0296	IC50 [2]: 3.83 µg/mL (≈ 39 µM); NOEC (survival) [2]: 2.5 mg/L; water solubility [3]: water soluble; LC50 at 48 h [4]: 31.5 µg/mL (≈ 321 µM); NOEC (survival) [5]: 13 mg/L; LC50 at 96 h [6]: > 100 µg/mL; LC50 [7]: >100 µg/mL; NOEC (survival) [7]: 50 mg/L; No FRC Corrosion Rate ([1]; listed as (1H-pyrazol-1-yl)methanol): 0.0057 mpy
Cc1cc(C)n(C(O)c2ccccc2)n1 (centres unmarked) [Compound 2, (3,5-dimethyl-1H-pyrazol-1-yl)(phenyl)methanol]	0.0043	0.0479	
Cc1cc(C)n(CO)n1 [Compound 5, (3,5-dimethyl-1H-pyrazol-1-yl)-methanol]	0.0197	0.0228	
OCCn1cccn1 [Compound 4, 2-(1H-pyrazol-1-yl)ethan-1-ol]	0.0212	0.2739	
Tolyltriazole [Compound 11, reference compound]	0.0214	0.0995	
c1cn[nH]c1 [Compound 9, Pyrazole]	0.4232	0.1666	
c1ccc(-c2cc[nH]n2)cc1 [Compound 8, 3-phenyl-1H-pyrazole]	0.0039	0.0916	
CCn1cccn1 [Compound 10, 1-ethyl-1H-pyrazole, reference compound]	0.0345	0.5932	
Cc1n[nH]c(C)c1Cl [Compound 7, 4-chloro-3,5-dimethyl-1H-pyrazole]	0.0025	0.0212	
Cc1cc(C)[nH]n1 [Compound 6, 3,5-dimethylpyrazole]	0.0396	0.0599	water solubility [3]: water soluble
